For 5 molecules, GI50 and TGI results are on record in PubChem BioAssay (NCI).

The structures appear in SMILES notation.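 Step 1: Grow cells in 96-well plates. Step 2: Expose to compound for 48 hours at 5 concentrations. Step 3: Interpolate endpoints linearly; if unreached, use highest concentration. GI50: concentration for 50% inhibition of growth. TGI is the concentration that stops growth completely.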

Among the test systems are MALME-3M melanoma; HL-60(TB) leukemia; SN12C renal; CAKI-1 renal; 786-0 renal; A549 NSCLC; OVCAR-3 ovarian; HOP-92 NSCLC; HT29 colon; M14 melanoma.
Common to all, as to test: inhibition of tumour cell growth, NCI panel, 48 h

Regarding `COc1ccc2c3c(c(OCCCN(C)C)nc2c1)-c1ccc(Cl)cc1C3=O`, the GI50 with MALME-3M melanoma is 10.7 µM; with HL-60(TB) leukemia, 18.9 µM; in the experiment on SN12C renal it was 5.33 µM; with CAKI-1 renal, 11.4 µM; in the experiment on 786-0 renal, 1760 nM; with A549 NSCLC, 4.39 µM. The GI50 with OVCAR-3 ovarian is 3.55 µM; in the experiment on HOP-92 NSCLC, 1780 nM; with HT29 colon it was 2010 nM; in the experiment with M14 melanoma, 11.4 µM. Also, the TGI with MALME-3M melanoma amounted to 26.4 µM; in the experiment on HL-60(TB) leukemia it was 64.2 µM; in the experiment on SN12C renal it was 21.3 µM; in the experiment on CAKI-1 renal, 23.6 µM; in the experiment on 786-0 renal it was 3.64 µM; with A549 NSCLC, 23.1 µM. In addition, the TGI with OVCAR-3 ovarian was 16.7 µM; in the experiment on HOP-92 NSCLC, 11.8 µM; in the experiment with HT29 colon it was 17.6 µM; with M14 melanoma it was 24.2 µM.

On to `COc1cccc(C2C(C(=O)Nc3cc(=O)n(C)c(=O)n3C)=C(C)NC(C)=C2C(=O)Nc2cc(=O)n(C)c(=O)n2C)c1O`, for which the TGI in the experiment on MALME-3M melanoma, in the experiment on HL-60(TB) leukemia, in the experiment on SN12C renal, with CAKI-1 renal, in the experiment on 786-0 renal and in the experiment on A549 NSCLC was above 100 µM each time. Further, the TGI in the experiment on OVCAR-3 ovarian, in the experiment with HOP-92 NSCLC, with HT29 colon and with M14 melanoma was above 100 µM in each case.

In the case of `CCOC(=O)C12CC1(C(=O)OCC)C1CCC2C1` (stereo not given), the TGI in the experiment with MALME-3M melanoma, in the experiment with HL-60(TB) leukemia, with SN12C renal, in the experiment on CAKI-1 renal, in the experiment with 786-0 renal and with A549 NSCLC was above 100 µM each time. In addition, the TGI in the experiment with OVCAR-3 ovarian is above 100 µM; in the experiment on HOP-92 NSCLC, 95.2 µM; in the experiment on HT29 colon, above 100 µM; in the experiment with M14 melanoma it was above 100 µM.

On to `O=c1c([Se]c2coc3ccccc3c2=O)coc2ccccc12`, for which the TGI is 31.8 µM in the experiment with MALME-3M melanoma; above 100 µM in the experiment on HL-60(TB) leukemia; 28.2 µM in the experiment on SN12C renal; 39.8 µM in the experiment on CAKI-1 renal; 32.9 µM with 786-0 renal; 20.9 µM with A549 NSCLC. The TGI in the experiment with OVCAR-3 ovarian is 32 µM; in the experiment with HOP-92 NSCLC, 31.7 µM; with HT29 colon it was 32.4 µM; with M14 melanoma, 28.2 µM.

For `CC(C)C(N)(C(=O)O)c1ccccc1` (stereo not given), the TGI with MALME-3M melanoma, with HL-60(TB) leukemia, with SN12C renal, in the experiment on CAKI-1 renal, with 786-0 renal and with A549 NSCLC was above 100 µM in each case. The TGI with OVCAR-3 ovarian, in the experiment with HOP-92 NSCLC, in the experiment with HT29 colon and in the experiment on M14 melanoma was above 100 µM throughout.
